Among the data in ChEMBL document CHEMBL1154568, “Sulcatin, a novel antiproliferative N-methylpyridinium alkaloid from the ascidian Microcosmus vulgaris” (J Nat Prod, 2000) are Activity values, retold here.

For series [1], the system named is WEHI. Put plainly: Antiproliferative activity against mouse WEHI 164 cells after 96 hrs by MTT assay. Type of series: functional, cell-based. (Tetrazolium assays rely on reduction of a dye to a coloured formazan, in cell work by metabolically active cells.)
The subject of series [2] is J774. Description: Antiproliferative activity against mouse J774 cells after 96 hrs by MTT assay. The conditions noted are these: j774, 96 h. Type of series: cell-based.

Activity calls are given as the source filed them. No cut-off for these calls is given here.

As for `Cc1cc[n+](C)cc1CCC(=O)[O-]` [SULCATIN], the result in series [1] was Active. Also, the outcome in series [2] was Active.
